According to paper PMC4853472, “Trapping mammalian protein complexes in viral particles” (Nature Communications, 2016):

Key:
[1] = biological target: T1, HMG-CoA reductase enzyme (HMGCR) (Homo sapiens, UniProt P04035); experiment: Virotrap: trapping in GAG-eDHFR virus-like particles, LC-MS/MS; type: cell-based; conditions: MTX-PEG-simvastatin conjugate, not free simvastatin; 1 uM on HEK293T producer cells; DMSO and unrelated-bait controls
T1 construct: endogenous protein of HEK293T cells, trapped in GAG-eDHFR virus-like particles, identified by LC-MS/MS
T1 sequence (P04035 1-888): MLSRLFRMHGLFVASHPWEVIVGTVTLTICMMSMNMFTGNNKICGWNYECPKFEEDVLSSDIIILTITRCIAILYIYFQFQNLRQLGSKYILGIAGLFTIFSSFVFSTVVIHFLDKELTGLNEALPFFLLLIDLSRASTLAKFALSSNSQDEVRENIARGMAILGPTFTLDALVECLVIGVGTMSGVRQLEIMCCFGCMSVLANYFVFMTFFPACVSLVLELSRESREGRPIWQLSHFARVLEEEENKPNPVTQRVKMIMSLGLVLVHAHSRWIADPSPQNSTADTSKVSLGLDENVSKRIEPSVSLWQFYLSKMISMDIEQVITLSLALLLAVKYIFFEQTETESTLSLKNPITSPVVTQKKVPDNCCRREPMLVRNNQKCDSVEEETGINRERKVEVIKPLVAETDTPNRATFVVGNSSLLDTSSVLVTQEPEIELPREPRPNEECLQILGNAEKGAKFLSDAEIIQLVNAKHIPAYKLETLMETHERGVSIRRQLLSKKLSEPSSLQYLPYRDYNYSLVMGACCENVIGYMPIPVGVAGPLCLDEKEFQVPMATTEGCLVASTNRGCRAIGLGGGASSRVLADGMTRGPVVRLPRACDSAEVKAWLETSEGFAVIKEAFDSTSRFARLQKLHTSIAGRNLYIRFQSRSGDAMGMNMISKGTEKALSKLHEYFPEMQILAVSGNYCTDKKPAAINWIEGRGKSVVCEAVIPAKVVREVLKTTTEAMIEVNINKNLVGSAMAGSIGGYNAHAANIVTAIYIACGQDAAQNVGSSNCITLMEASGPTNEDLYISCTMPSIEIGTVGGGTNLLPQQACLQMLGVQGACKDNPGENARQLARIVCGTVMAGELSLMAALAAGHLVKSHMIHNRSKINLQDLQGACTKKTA

MAL TIR (Homo sapiens) = MAL TIR (Homo sapiens) (UniProt P58753); conditions: cited from earlier work
Sequence of MAL TIR (Homo sapiens) (P58753 81-216): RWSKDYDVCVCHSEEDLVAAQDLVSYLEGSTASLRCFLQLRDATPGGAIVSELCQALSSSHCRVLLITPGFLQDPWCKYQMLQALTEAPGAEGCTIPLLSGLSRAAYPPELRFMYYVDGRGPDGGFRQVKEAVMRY

Molecule | Protein trapped in virus-like particles (LC-MS/MS) [1] | Kd (MAL TIR (Homo sapiens)) [µM]
C[C@H]1C=C2C=C[C@H](C)[C@H](CC[C@@H]3C[C@@H](O)CC(=O)O3)[C@H]2[C@@H](OC(=O)C(C)(C)Cc2cn(CCOCCOCCOCCOCCOCCNC(=O)CC[C@H](NC(=O)c3ccc(N(C)Cc4cnc5nc(N)nc(N)c5n4)cc3)C(=O)O)nn2)C1 [MTX-linked simvastatin] | consistent enrichment of the known targets for simvastatin (HMG-CoA reductase enzyme (HMGCR)) | –
MYD88 TIR (from UniProt Q99836) | – | 8
